From patent US9901592B2 (priority 2008, dated 2018)
Values after ≈ are worked out from the molar mass of the structure shown. Values joined by “and” are separate entries in the source; they are usually repeats but may differ in a detail not shown here. Equal entries are not always repeated. Where two headings read alike, the source gives them in different places.

Columns and labels:
U. parvum = assay: MIC testing in 10B broth (colour change); type: cell-based, Ureaplasma parvum; conditions: for MIC50 / MIC90: Ureaplasma parvum
[1] = tested on: intraphagocytic L. pneumophila ATCC 33153 (THP-1); type: cell-based
H. influenzae ATCC 49247 = assay: post-antibiotic effect (PAE) testing; conditions: for PAE: H. influenzae ATCC 49247, 4X MIC, exposure 1 hour
N. meningitidis = assay: MIC, CLSI broth microdilution, invasive isolates; type: cell-based; conditions: Neisseria meningitidis; 62 N. meningitidis isolates
Experimental: Example. […] Colonization of the nasopharynx (NP) by NM can lead to invasive meningococcal disease. Chemoprophylaxis is used to eradicate NP colonization and prevent transmission to nonimmune contacts. […] 62 isolates (91.9% blood culture) of NM were collected from 29 medical centers in North and South America and Europe (1997-2008). […] Serological identification was performed for serogroups (SGs) B, C, Y and W135.

S. pyogenes [2] = assay: MIC of the strains of the mouse systemic infection model; type: cell-based; conditions: Streptococcus pyogenes
S. pyogenes [3] = assay: mouse systemic infection model (PD50); type: in vivo
M. genitalium = type: cell-based; conditions: M. genitalium (5 isolates)
[4] = tested on: viridans group streptococci (VGS); type: cell-based; conditions: VGS (51)
S. pneumoniae [5] = assay: neutropenic mouse thigh infection; type: in vivo; conditions: PO; for Dose for 2 log10 Reduction from 24 hour controls: QD
Experimental: Example. Neutropenic Mouse Thigh Infection. Mice were rendered neutropenic with IP injections of cyclophosamide at day −4 and day −1 of 150 mg/Kg and 100 mg/Kg, respectively. On day 0 mice were infected with approximately 5×10^5 CFU/ml of bacteria in a 0.1 ml volume into the right thigh. At 1.5 hours post infection mice received treatment via oral gavage. One group of infected mice were euthanized and thigh processed for bacterial titers to serve as T=0 controls. Twenty-four hours post treatment, the remaining mice were euthanized, thighs aseptically removed, weighed, homogenized, serially diluted and plated on bacterial growth media. CFUs per gram of thigh were calculated after overnight incubation of bacterial plates. The amount of test article required to achieve 1, 2, and 3 loge reductions from 24 hour control thighs were calculated. Additional studies were performed that fractionated the single treatment dose (Q24) into two (Q12), three (Q8) and four (Q6) equivalent doses to determine the pharmacodynamic nature of this compound. Further analysis includes static dose, EC50, 1 log kill and maximal effect (Emax).

S. pneumoniae [6] = assay: mouse subcutaneous abscess model; type: in vivo; conditions: for average log10 CFU/gram of abscess: S. pneumoniae 1629, 10 mg/Kg PO
Experimental: Example. Efficacy was evaluated in several infection models. […] PD50s were determined 24 hr post infection. CEM-101 was further evaluated in a subcutaneous abscess mouse model against S. pneumoniae. CD-1 female mice were infected via SC injection of bacteria mixed with cyclodextran beads. Two hr post infection, mice received a single oral dose of CEM 101 or control agents. At 48 hr post dose, mice were euthanized, abscesses aseptically removed and bacteria enumerated. CFU per abscess was determined and compared to the untreated control. […] 24 hr post treatment, the thighs were processed and CFU/gram of thigh determined.
Example. Mouse Subcutaneous Abscess. Bacteria were prepared from an overnight plate culture by re-suspending in saline and adjusting the suspension to a 0.1 OD at 625 nm of a 1:10 dilution. The adjusted bacterial suspension was mixed 1:2 with cyclodextran beads prepared as per package instructions. The right flanks of the mice were shaven and injected subcutaneously with 0.2 ml of the bacterial inoculum. Two hours post infection mice were treated via oral gavage with either test article or control drug. 48 hours post infection, mice were euthanized, abscesses aseptically removed, homogenized, serially diluted and plated on bacterial growth agar. After overnight incubation, colonies were counted and CFUs/gram of abscess were determined.
Example. The ability of CEM101 to reduce the microbial load in abscess infection model was also assessed against S. pneumoniae isolates.

S. pyogenes [7] = assay: microbe, parasite or virus in culture; type: cell-based; conditions: for MIC: Streptococcus pyogenes
S. pyogenes [8] = type: cell-based; parameters: MIC: unit not given beside the values; conditions: for MIC50 / MIC90: Streptococcus pyogenes
[9] = S. pyogenes (macrolide susceptible)
[10] = S. pyogenes TEL R, Macr-R, 10 strains
[11] = S. pyogenes TEL S, Macr-R, 30 strains
[12] = S. pyogenes TEL S, Macr-S, 10 strains

## CC[C@H]1OC(=O)[C@@](C)(F)C(=O)[C@H](C)[C@@H](OC2OC(C)CC(N(C)C)C2O)[C@@](C)(OC)C[C@@H](C)C(=O)[C@H](C)[C@H]2N(CCCCn3cc(-c4cccc(N)c4)nn3)C(=O)O[C@]12C (some centres unmarked) [CEM-101, 11-N-4-(3-aminophenyl)-[1,2,3]triazol-1-yl]-butyl}-5-desosaminyl-3-oxo-2-fluoro-erythronolide A,-11,12-cyclic carbamate]
U. parvum; U. parvum (10 isolates)
  MIC Range: 0.002 to 0.031 µg/mL
U. parvum; U. parvum (10 isolates), read-out: MIC50
  MIC50: 0.008 µg/mL (≈ 0.00947 µM)
U. parvum; U. parvum (10 isolates), read-out: MIC90
  MIC90: 0.016 µg/mL (≈ 0.0189 µM)
[1]; L. pneumophila ATCC 33153, 48 h
  Cs: 4.56 ×MIC
H. influenzae ATCC 49247; Gram-negative pathogens
  average PAE: 4.5 h
H. influenzae ATCC 49247
  PAE: 3.2 h
N. meningitidis
  MIC50: ≤ 0.015 µg/mL
  MIC90: ≤ 0.015 µg/mL
S. pyogenes [2]; S. pyogenes (erythromycin R)
  MIC: 1 µg/mL
S. pyogenes [2]; [9]
  MIC: 0.015 µg/mL
S. pyogenes [3]; S. pyogenes (erythromycin R)
  PD50: 5.1 mg/kg
S. pyogenes [3]; [9]
  PD50: 9.4 mg/kg
M. genitalium
  MIC Range: ≦0.000032 μg/mL
[4]
  MIC50: ≤ 0.008 µg/mL
  MIC90: 0.06 µg/mL (≈ 0.071 µM)
  MIC Range: ≦0.008-0.12 μg/ml
S. pneumoniae [5]; S. pneumoniae 1629
  Max. change in log10CFUs from 24 hr. controls: −5.81 log10CFUs
  Dose for 2 log10 Reduction from 24 hour controls: 7.0 mg/Kg
S. pneumoniae [5]; S. pneumoniae 6303
  Max. change in log10CFUs from 24 hr. controls: −6.17 log10CFUs
S. pneumoniae [5]; S. pneumoniae 6303, Q6
  Emax: 5.83 log10CFU/thigh
S. pneumoniae [5]; S. pneumoniae 6303, Q8
  EC50: 9.0 mg/kg
S. pneumoniae [5]; S. pneumoniae 6303, Q12
  EC50: 14.5 mg/kg
  Emax: 4.95 log10CFU/thigh
S. pneumoniae [5]; S. pneumoniae 6303, Q24
  1 log kill: 10.8 mg/Kg
  EC50: 5.7 mg/kg
S. pneumoniae [6]; 24 hours
  average log10 CFU/gram of abscess: about 3 log10 CFU/gram
S. pneumoniae [6]; 48 hours
  average log10 CFU/gram of abscess: about 3 log10 CFU/gram
S. pneumoniae [6]; abscess, 10 mg/Kg QD dose
  log decrease of CFU from untreated mice: 4.2 log10

## CC[C@H]1OC(=O)[C@H](C)C(=O)[C@H](C)[C@@H](O[C@@H]2O[C@H](C)C[C@H](N(C)C)[C@H]2O)[C@](C)(OC)C[C@@H](C)C(=O)[C@H](C)[C@H]2N(CCCCn3cnc(-c4cccnc4)c3)C(=O)O[C@]12C [TEL, telithromycin]
U. parvum; U. parvum (10 isolates)
  MIC Range: 0.008 to 0.063 µg/mL
U. parvum
  MIC50: 0.063 µg/mL (≈ 0.0776 µM)
  MIC90: 0.125 µg/mL (≈ 0.154 µM)
[1]; intracellular L. pneumophila ATCC 33153
  Cs, static concentration: 0.06 mg/L
H. influenzae ATCC 49247
  PAE: 1.2 h
N. meningitidis
  MIC: 0.015 to 0.12 µg/mL (≈ 0.0185 to 0.148 µM)
  MIC50: ≤ 0.015 µg/mL
  MIC90: 0.03 µg/mL (≈ 0.0369 µM)
S. pyogenes [2]; S. pyogenes (erythromycin R)
  MIC: 1 µg/mL
S. pyogenes [2]; [9]
  MIC: 0.015 µg/mL
S. pyogenes [3]; S. pyogenes (erythromycin R)
  PD50: 4.4 mg/kg
S. pyogenes [3]; [9]
  PD50: 7.8 mg/kg
M. genitalium
  MIC Range: ≦0.00003-0.00025 μg/mL
[4]
  MIC50: 0.015 µg/mL (≈ 0.0185 µM)
  MIC90: 0.25 µg/mL (≈ 0.308 µM)
  MIC Range: ≦0.008-0.5 μg/ml
S. pneumoniae [5]; S. pneumoniae 1629
  Max. change in log10CFUs from 24 hr. controls: −6.82 log10CFUs
  Dose for 2 log10 Reduction from 24 hour controls: 13.2 mg/Kg
S. pneumoniae [5]; S. pneumoniae 6303
  Max. change in log10CFUs from 24 hr. controls: −5.27 log10CFUs
S. pneumoniae [6]; 24 hours
  average log10 CFU/gram of abscess: about 3 log10 CFU/gram
S. pneumoniae [6]; 48 hours
  average log10 CFU/gram of abscess: about 4.5 log10 CFU/gram
S. pyogenes [7]; S. pyogenes
  strains with resistant clones / strains tested: 2/4 and 2/5
S. pyogenes [7]; read-out: Initial MIC, strain 237 Macrolide-R [LA mutation], parent
  MIC: 0.06 µg/mL (≈ 0.0739 µM)
S. pyogenes [7]; read-out: Initial MIC, strain 2011 Macrolide-R [mef(A)], parent
  MIC: 0.5 µg/mL (≈ 0.616 µM)
S. pyogenes [7]; read-out: Initial MIC, strain 2094 Macrolide-R [erm(A)], parent
  MIC: 0.03 µg/mL (≈ 0.0369 µM)
S. pyogenes [7]; read-out: Initial MIC, strain 2132 Macrolide-S, parent
  MIC: 0.008 µg/mL (≈ 0.00985 µM)
S. pyogenes [7]; read-out: MIC of parents of resistant clones, S. pyogenes
  MIC: 0.03 to 8 µg/mL
S. pyogenes [7]; read-out: Parental MICs, S. pyogenes, 5 strains with varying resistotypes
  MIC: 0.03 to 8 µg/mL (≈ 0.0369 to 9.85 µM)
S. pyogenes [7]; read-out: Selected Resistance (MIC), strain 237 Macrolide-R [LA mutation], after serial passages in the drug
  MIC: 0.125 µg/mL (≈ 0.154 µM)
S. pyogenes [7]; read-out: Selected Resistance (MIC), strain 2011 Macrolide-R [mef(A)], after serial passages in the drug
  MIC: 1 µg/mL (≈ 1.23 µM)
S. pyogenes [7]; read-out: Selected Resistance (MIC), strain 2094 Macrolide-R [erm(A)], after serial passages in the drug
  MIC: 0.25 µg/mL (≈ 0.308 µM)
S. pyogenes [7]; read-out: Selected Resistance (MIC), strain 2132 Macrolide-S, after serial passages in the drug
  MIC: 0.03 µg/mL (≈ 0.0369 µM)
S. pyogenes [7]; read-out: Selected Resistance (MIC), strain 2368 Macrolide-R [erm(B)], after serial passages in the drug
  MIC: > 64 µg/mL
S. pyogenes [7]; daily passages, max. 50
  days until resistant clones (MIC increase): 6 to 22 days
S. pyogenes [7]; strain 237 Macrolide-R [LA mutation], clone selected with CEM-101
  Retest MIC after 10 Antibioticfree Subcultures: 1 µg/mL
S. pyogenes [7]; strain 237 Macrolide-R [LA mutation], clone selected with CLN
  Retest MIC after 10 Antibioticfree Subcultures: 0.06 µg/mL
S. pyogenes [7]; strain 2011 Macrolide-R [mef(A)], clone selected with AZI
  Retest MIC after 10 Antibioticfree Subcultures: 0.25 µg/mL
S. pyogenes [7]; strain 2094 Macrolide-R [erm(A)], clone selected with AZI
  Retest MIC after 10 Antibioticfree Subcultures: 0.03 µg/mL
S. pyogenes [7]; strain 2094 Macrolide-R [erm(A)], clone selected with CEM-101
  Retest MIC after 10 Antibioticfree Subcultures: 0.5 µg/mL
S. pyogenes [7]; strain 2094 Macrolide-R [erm(A)], clone selected with CLN
  Retest MIC after 10 Antibioticfree Subcultures: 0.03 µg/mL
S. pyogenes [7]; strain 2094 Macrolide-R [erm(A)], clone selected with CLR
  Retest MIC after 10 Antibioticfree Subcultures: 0.03 µg/mL
S. pyogenes [7]; strain 2094 Macrolide-R [erm(A)], clone selected with TEL
  Retest MIC after 10 Antibioticfree Subcultures: 0.125 µg/mL
S. pyogenes [7]; strain 2132 Macrolide-S, clone selected with AZI
  Retest MIC after 10 Antibioticfree Subcultures: 0.03 µg/mL
S. pyogenes [7]; strain 2368 Macrolide-R [erm(B)], clone selected with CEM-101
  Retest MIC after 10 Antibioticfree Subcultures: >64 µg/mL
S. pyogenes [7]; strain 2368 Macrolide-R [erm(B)], clone selected with TEL
  Retest MIC after 10 Antibioticfree Subcultures: >64 µg/mL
S. pyogenes [8]; MAC-R S. pyogenes 3029
  MIC: (16)
S. pyogenes [8]; [10]
  MIC50: 32 µg/mL (≈ 39.4 µM)
  MIC90: 32 µg/mL (≈ 39.4 µM)
S. pyogenes [8]; [11]
  MIC50: 0.125 µg/mL (≈ 0.154 µM)
  MIC90: 0.5 µg/mL (≈ 0.616 µM)
S. pyogenes [8]; [12]
  MIC50: 0.03 µg/mL (≈ 0.0369 µM)
  MIC90: 0.03 µg/mL (≈ 0.0369 µM)
